According to patent US11649253B2, “Terbium and dysprosium complexes with optimised antenna, used as luminescent markers” (ECOLE NORMALE SUPERIEURE DE LYON, priority 2017, dated 2023):
Where “and” joins values, the source holds several entries; their conditions need not be identical. Equal entries are not always repeated.

Columns and labels:
[1] = Photophysical properties of the complexes measured in methanol; assay type: physicochemical; settings: for λ max: absorption; for B at λ max: brightness at λ max; for ε: molar extinction coefficient; for Φ: quantum yield
Description: (§1) The NMR (^1H, ^13C) spectra were recorded on a Bruker Avance device at a frequency of 300 MHz or 500.10 MHz, and 75 MHz or 125.75 MHz, for ^1H and ^13C respectively. Chemical shifts (δ) are expressed in parts per million (ppm) with respect to […] used as an internal standard and using the solvents indicated. The coupling constants (J) are expressed in Hz and the following notations are used: s (singlet), br (broad), d (doublet), t (triplet), dd (doublet of doublets), m (multiplet). The high-resolution mass spectra were recorded at the Lyon Common Mass Spectrometry Centre (Claude Bernard Lyon University, Lyon, France) on a MicroTOFQII instrument equipped with a positive ESI source. […] Purifications were carried out by chromatographic column on silica gel (silica gel 0.035-0.070 mm, 60 A). The solvents used for the reactions were purchased from Aldrich or Acros Organics as dry or extra dry solvents and stored on 3 Å molecular sieves and the reagents used were purchased from Aldrich, Acros Organics or Alfa Aesar. The UV/Vis absorption spectra were recorded on a JASCO V670 spectrometer; the emission spectra on a JOBIN-YVON fluorolog 3 spectrofluorimeter. Retention times were performed on an Agilent Technologies 1260 device equipped with a Waters XBridge RP-C18 column ([…], 4.6×100 mm). The chromatographic system used is 0.25 M ammonium formate-MeCN (v/v) as eluents: isocratic 15% MeCN (2 min), linear gradient 15 to 100% MeCN (16 min), isocratic 100% MeCN (4 min), at a rate of 1 mL/min, UV detection at 210 and 252 nm. Cellular imaging tests were performed using a solution concentrated in complex in DMSO to obtain a final complex concentration in the order of […] in cellular medium (PBS) with <1% DMSO. The T24 cells are prefixed to the PFA. The biphotonic absorption spectra were performed with a confocal laser scanning microscope LSM710 NLO (Carl Zeiss).
The properties of complexes Ia.1-Ia.6 and 8 were evaluated in methanol (Table 1) and water (Table 2). These properties were compared to those of complex 9, described in the document, Dalton Trans.

[2] = Photophysical properties of the complexes measured in water; assay type: physicochemical; settings: for λ max: absorption; for B at λ max: brightness at λ max; for ε: molar extinction coefficient
Description: as §1
The properties of complexes Ia.1-Ia.6 and 8 were evaluated in methanol (Table 1) and water (Table 2). These properties were compared to those of complex 9, described in the document, Dalton Trans. 2015, 44, 4918, and of the following structure:
The spectroscopic properties of complexes Ia.2 and Ia.4 are stored in water (Table 2).

Row | λ max ([2]; absorption band at 275 nm) [nm] | λ max ([2]; absorption band at 300 nm) [nm] | B at 330 nm ([2]; brightness at 330 nm) [L/mol/cm] | B at λ max ([2]; absorption band at 275 nm) [L/mol/cm] | B at λ max ([2]; absorption band at 300 nm) [L/mol/cm] | T ([2]; luminescence lifetime) [ms] | ε ([2]; absorption band at 275 nm) [L/mol/cm] | ε ([2]; absorption band at 300 nm) [L/mol/cm] | Φ ([2]; quantum yield) [%] | decrease of the molar extinction coefficient on introduction of a second methyl group ([1]; Ia.4 compared with its counterpart Ia.2) | B at 330 nm ([1]; brightness at 330 nm, methanol) [L/mol/cm] | T ([1]; luminescence lifetime, methanol) [ms] | Structure (SMILES) | λ max ([1]; methanol) | B at λ max ([1]; methanol) | ε ([1]; methanol) | Φ ([1]; methanol) [%]
1 |  |  |  |  |  |  |  |  |  |  |  |  | COc1ccc(-c2cc(CN3CCN(Cc4cc(-c5ccc(OC)cc5)cc(C(=O)[O-])n4)CCN(Cc4cc(-c5ccc(OC)cc5)cc(C(=O)[O-])n4)CC3)nc(C(=O)[O-])c2)cc1.[Tb+3] [complex 9, reference compound] | 308 nm | 3900 L/mol/cm | 33000 L/mol/cm | 12
2 | 275 | 300 | 2500 | 14000 | 7800 | 1.46 | 21000 | 11800 | 66 | more than 50% | 3400 | 1.59 | COCCOCCOCCOc1cc(C)c(-c2cc(CN3CCN(Cc4cc(-c5c(C)cc(OCCOCCOCCOC)cc5C)cc(C(=O)[O-])n4)CCN(Cc4cc(-c5c(C)cc(OCCOCCOCCOC)cc5C)cc(C(=O)[O-])n4)CC3)nc(C(=O)[O-])c2)c(C)c1.[Tb+3] [Ia.4] | 302 nm and 274 nm | 8500 L/mol/cm and 12000 L/mol/cm | 13000 L/mol/cm and 19000 L/mol/cm | 65
